Consider 19 compounds from US20170305922A1, “CARM1 INHIBITORS AND USES THEREOF” (Epizyme, Inc., priority 2014, published 2017).

The target of one assay is T1, Human CARM1 (PRMT4) (Homo sapiens, UniProt Q86X55).
T1 construct: Flag-CARM1-His was eluted with 200 ug/ml FLAG peptide in buffer A; made in house; host or cells: HEK 293F cells infected with recombinant baculovirus (pFastBacMam)
T1 sequence (Q86X55 1-585 isoform Q86X55-1): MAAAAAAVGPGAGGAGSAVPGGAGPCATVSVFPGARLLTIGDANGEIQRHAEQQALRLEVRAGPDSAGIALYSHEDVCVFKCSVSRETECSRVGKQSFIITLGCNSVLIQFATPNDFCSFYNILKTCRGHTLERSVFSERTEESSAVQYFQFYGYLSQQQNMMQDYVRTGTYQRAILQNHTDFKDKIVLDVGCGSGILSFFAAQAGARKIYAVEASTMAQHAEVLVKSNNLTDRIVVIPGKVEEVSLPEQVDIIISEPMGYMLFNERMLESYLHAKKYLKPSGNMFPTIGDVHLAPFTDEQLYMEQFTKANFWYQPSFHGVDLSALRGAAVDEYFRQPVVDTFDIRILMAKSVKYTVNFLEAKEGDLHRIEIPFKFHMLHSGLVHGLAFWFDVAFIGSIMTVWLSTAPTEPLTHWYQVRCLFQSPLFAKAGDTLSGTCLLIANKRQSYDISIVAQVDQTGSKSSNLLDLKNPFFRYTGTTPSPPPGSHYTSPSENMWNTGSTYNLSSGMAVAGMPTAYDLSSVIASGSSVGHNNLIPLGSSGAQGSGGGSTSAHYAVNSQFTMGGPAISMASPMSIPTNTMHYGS
The assay can be described thus: CARM1 enzyme assay on peptide substrates (3H-SAM Flashplate). To be noted: Biochemical assay; CARM1 0.25 nM, 3H-SAM 30 nM, peptide 250 nM; read-out: Biochem IC50.

In assay [1] the test system is asymmetric di-methyl PABP1 in RKO cells. The assay is described as follows: RKO methylation assay: In Cell Western (ICW) for asymmetric di-methyl PABP1 (PABP1me2a). As to conditions: Homo sapiens, RKO, 48 h, Cellular-based (PABP1me2a) ICW (In Cell Western) assay. The gist of the method: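 In-cell western on compound-exposed RKO cells (48 hours): asymmetric di-methyl PABP1 detected by antibody at 800 nm, DNA content by DRAQ5 at 700 nm. Percent inhibition from signal ratios against DMSO (minimum) and 20 μM reference compound (maximum) wells; IC50 curves fitted from triplicates.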

What is called IC50 is the concentration that gives 50% inhibition. Take `CNC[C@@H](O)COc1ccc(Cl)c(-c2nc(-c3c(C)noc3C)c(C)c(N3CC4(CC=C(F)CC4)C3)n2)c1` [Example 68]: the IC50 on Human CARM1 (PRMT4) was found to be 3.9 nM; in assay [1], 144 nM.

In the case of `CNC[C@@H](O)COc1ccc(Cl)c(-c2nc(-c3c(C)noc3C)c(C)c(N3Cc4ccc(C)nc4C3)n2)c1` [Example 69], the IC50 was 1.2 nM on Human CARM1 (PRMT4) and 22 nM in assay [1].

Turning to `CNC[C@@H](O)COc1ccc(Cl)c(-c2nc(-c3c(C)noc3C)c(C)c(N3Cc4cnc(OC)nc4C3)n2)c1` [Example 70], the IC50 at Human CARM1 (PRMT4) came to 3.2 nM; in assay [1] it was 19 nM.

`CNC[C@@H](O)COc1ccc(Cl)c(-c2nc(-c3c(C)noc3C)c(C)c(N3C[C@]4(C)CN(CC(F)F)C[C@]4(C)C3)n2)c1` [Example 71]: the results for the half-inhibitory concentration (IC50) (on Human CARM1 (PRMT4); in assay [1]) were 5.6 nM and 221 nM, respectively.

On to `CCOc1ncc2c(n1)CN(c1nc(-c3cc(OC[C@H](O)CNC)ccc3Cl)nc(-c3c(C)noc3C)c1C)C2` [Example 72], for which the figures for the IC50 (on Human CARM1 (PRMT4); in assay [1]) were 2.9 nM and 12 nM, respectively.

Consider `CNC[C@@H](O)COc1ccc(Cl)c(-c2nc(-c3c(C)noc3C)c(C)c(N3Cc4cc(=O)n(C(C)C)cc4C3)n2)c1` [Example 73], for which the figures for the IC50 (on Human CARM1 (PRMT4); in assay [1]) were 6.1 nM and 422 nM, respectively.

As for `CNC[C@@H](O)COc1ccc(Cl)c(-c2nc(-c3c(Cl)cnn3C)c(C)c(N3CC4(CCN(C(=O)OC)CC4)C3)n2)c1` [Example 74], the IC50 at Human CARM1 (PRMT4) is 9.7 nM; in assay [1], 207 nM.

For the compound `CCn1ncc(Cl)c1-c1nc(-c2cc(OC[C@H](O)CNC)ccc2Cl)nc(N2CC3(CCN(C(=O)OC)CC3)C2)c1C` [Example 75], the IC50 came to 12.5 nM on Human CARM1 (PRMT4) and 396 nM in assay [1].

Regarding `CCn1ncc(Cl)c1-c1nc(-c2cc(OC[C@H](O)CNC)ccc2Cl)nc(N2Cc3cncnc3C2)c1C` [Example 76], the IC50 on Human CARM1 (PRMT4) was found to be 4.8 nM; in assay [1] it was 268 nM.

For `CCn1ncc(Cl)c1-c1nc(-c2cc(OC[C@H](O)CNC)ccc2Cl)nc(N2Cc3cccnc3C2)c1C` [Example 77], the IC50 came to 3.7 nM at Human CARM1 (PRMT4) and 293 nM in assay [1].

Turning to `CNC[C@@H](O)COc1ccc(Cl)c(-c2nc(-c3c(C)noc3C)c(C)c(N3CC4(C3)CC(F)(F)C4)n2)c1` [Example 78], the IC50 on Human CARM1 (PRMT4) stood at 5.6 nM; in assay [1], 112 nM.

As for `CNC[C@@H](O)COc1ccc(Cl)c(-c2nc(-c3c(C)noc3C)c(C)c(N3CC4(CC(OC)C4)C3)n2)c1` [Example 79], the IC50 at Human CARM1 (PRMT4) worked out at 9.3 nM; in assay [1], 60 nM.

As to `CNC[C@@H](O)COc1ccc(Cl)c(-c2nc(-c3c(C)cnn3C)c(C)c(N3CC4(CCN(C(=O)OC)CC4)C3)n2)c1` [Example 80], the IC50 at Human CARM1 (PRMT4) turned out to be 8.8 nM; in assay [1], 182 nM.

On to `CNC[C@@H](O)COc1ccc(Cl)c(-c2nc(-c3c(C)cnn3C)c(C)c(N3Cc4cncnc4C3)n2)c1` [Example 81], for which the IC50 at Human CARM1 (PRMT4) is 3.8 nM; in assay [1] it was 112 nM.

On to `CNC[C@@H](O)COc1ccc(Cl)c(-c2nc(-c3c(C)cnn3C)c(C)c(N3Cc4cccnc4C3)n2)c1` [Example 82], for which the IC50 on Human CARM1 (PRMT4) is 2.1 nM; in assay [1], 56 nM.

As for `CNC[C@@H](O)COc1ccc(Cl)c(-c2nc(-c3c(C)noc3C)c(C)c(N3CC4(CCC(SC)CC4)C3)n2)c1` [Example 83], the IC50 came out at 3.3 nM on Human CARM1 (PRMT4) and 74 nM in assay [1].

As to `CNC[C@@H](O)COc1ccc(Cl)c(-c2nc(-c3c(C)c(Cl)nn3C)c(C)c(N3Cc4cccnc4C3)n2)c1` [Example 84], the IC50 is 1.6 nM on Human CARM1 (PRMT4) and 28 nM in assay [1].

On to `CNC[C@@H](O)COc1cccc(-c2nc(-c3c(C)c(Cl)nn3C)c(C)c(N3Cc4cccnc4C3)n2)c1` [Example 85], for which the values for the IC50 (at Human CARM1 (PRMT4); in assay [1]) were 1.1 nM and 83 nM, respectively.

Regarding `CNC[C@@H](O)COc1ccc(Cl)c(-c2nc(C#CC3CCN(C(=O)OC)CC3)c(C)c(-c3c(C)noc3C)n2)c1` [Example 86], the IC50 at Human CARM1 (PRMT4) came to 97 nM; in assay [1] it was 283 nM.
